According to the RepoRT retention time repository (doi:10.1038/s41586-021-03707-9):

Key:
[1] = Waters ACQUITY UPLC BEH C18, 100 × 2.1 mm, 1.7 µm, 40 °C, 0.28 mL/min, estimated dead time 0.63 min; A: water + 6.5 mM ammonium hydroxide; B: methanol + 6.5 mM ammonium hydroxide; gradient (min/%B) 0/0.5 4/70 4.5/98 5.4/98; details: stereoisomer not certain
[2] = RP, Waters ACQUITY UPLC HSS C18, 100 × 2.1 mm, 1.7 µm, 40 °C, 0.35 mL/min, estimated dead time 0.63 min; A: water + 0.1% formic acid; B: methanol + 0.1% formic acid; gradient (min/%B) 0/0.5 4/70 4.5/98 5.4/98; details: stereoisomer not certain

With `Nc1ncnc2c1ncn2C1CC(O)C(COP(=O)(O)O)O1` (stereo not given) the LC retention time [1] was 1.31 min and the LC retention time [2] was 1.56 min.
With `O=C(O)CCCCCCC(=O)NCC(=O)O` the LC retention time [1] was 0.865 min and the LC retention time [2] was 3.35 min.
For `Nc1ncnc2c1ncn2C1OC(CO)C2OP(=O)(O)OC21` (stereo not given), the LC retention time [1] was 2.11 min and the LC retention time [2] was 1.68 min.
Work on `O=c1ccn(C2CC(O)C(COP(=O)(O)O)O2)c(=O)[nH]1` (stereo not given) yielded an LC retention time [1] of 0.813 min and an LC retention time [2] of 1.35 min.
For `O=C(O)Cc1c[nH]c2ccc(O)cc12`, the LC retention time [1] was 1.72 min and the LC retention time [2] was 2.92 min.
`CC(=O)Nc1ccc(O)cc1` gave an LC retention time [1] of 2.58 min and an LC retention time [2] of 2.51 min.
For `NCCCC(=O)O`, the LC retention time [1] was 0.769 min and the LC retention time [2] was 0.761 min.
For `O=C(O)c1cc(=O)[nH]c(=O)[nH]1`, the LC retention time [1] was 0.811 min and the LC retention time [2] was 1.01 min.
For `CNCCc1ccc(O)cc1`, the LC retention time [1] was 2.43 min and the LC retention time [2] was 1.79 min.
Compound `Cn1c(=O)[nH]c2ncn(C)c2c1=O` has an LC retention time [1] of 2.68 min and an LC retention time [2] of 2.8 min.
Compound `NCCc1ccc(O)cc1` has an LC retention time [1] of 2.22 min and an LC retention time [2] of 1.7 min.
With `COc1cccc(OC)c1C(=O)O` the LC retention time [1] was 2.18 min and the LC retention time [2] was 3.65 min.
Work on `O=C(O)c1cccnc1` yielded an LC retention time [1] of 1.25 min and an LC retention time [2] of 1.27 min.
For `NC(C(=O)O)c1ccc(O)cc1` (stereo not given), the LC retention time [1] was 0.818 min and the LC retention time [2] was 0.808 min.
Work on `O=[N+]([O-])c1ccc(O)cc1` yielded an LC retention time [1] of 2.41 min and an LC retention time [2] of 4.18 min.
`CCCCNC(=O)NS(=O)(=O)c1ccc(C)cc1` showed an LC retention time [1] of 4.37 min and an LC retention time [2] of 5.11 min.
`CC(=O)NC(CC(N)=O)C(=O)O` (stereo not given) showed an LC retention time [1] of 0.76 min and an LC retention time [2] of 0.981 min.
In the case of `CCC(C)C(=O)NCC(=O)O` (stereo not given), the LC retention time [1] is reported as 2.17 min and the LC retention time [2] is reported as 2.97 min.
Work on `O=C(O)c1ccc(O)cc1` yielded an LC retention time [1] of 0.892 min and an LC retention time [2] of 3.1 min.
`CCOC(=O)Cc1c[nH]c2ccccc12` showed an LC retention time [1] of 5.38 min and an LC retention time [2] of 5.21 min.
Compound `C[n+]1cccc(C(=O)[O-])c1` has an LC retention time [1] of 0.848 min and an LC retention time [2] of 0.822 min.
`Nc1cc(C(=O)O)ccc1O` showed an LC retention time [1] of 0.796 min and an LC retention time [2] of 1.25 min.
`CC(=O)NCCc1c[nH]c2ccc(O)cc12` gave an LC retention time [1] of 3.09 min and an LC retention time [2] of 3.01 min.
With `Oc1cccc(O)c1O` the LC retention time [1] was 1.93 min and the LC retention time [2] was 1.94 min.
`CC(=O)NC(C)C(=O)O` (stereo not given) showed an LC retention time [1] of 0.918 min and an LC retention time [2] of 1.77 min.
`COC(=O)C(Cc1ccccc1)NC(=O)C(N)CC(=O)O` (stereo not given) gave an LC retention time [1] of 3.67 min and an LC retention time [2] of 3.56 min.
Compound `NC(=O)NCCCC(N)C(=O)O` (stereo not given) has an LC retention time [1] of 0.796 min and an LC retention time [2] of 0.766 min.
`OC1C2COC(O2)C(O)C1O` (stereo not given) gave an LC retention time [1] of 0.853 min and an LC retention time [2] of 0.85 min.
`Cc1ncc(CO)c(C(=O)O)c1O` showed an LC retention time [1] of 2.54 min and an LC retention time [2] of 1.97 min.
`O=C(O)Cc1cc(O)ccc1O` gave an LC retention time [1] of 1.49 min and an LC retention time [2] of 2.23 min.
Compound `Nc1nc2nccnc2c(=O)[nH]1` has an LC retention time [1] of 1.57 min and an LC retention time [2] of 1.73 min.
`CCCCCC(=O)NCC(=O)O` showed an LC retention time [1] of 3.29 min and an LC retention time [2] of 4.08 min.
Compound `CCC(O)(CC)C(=O)O` has an LC retention time [1] of 1.31 min and an LC retention time [2] of 3.56 min.
Compound `CCOC(=O)C(N)Cc1c[nH]c2ccccc12` (stereo not given) has an LC retention time [1] of 5.01 min and an LC retention time [2] of 3.82 min.
`CC12CCC(=O)C=C1CCC1C2C(=O)CC2(C)C1CCC2(O)C(=O)CO` (stereo not given) showed an LC retention time [1] of 5.05 min and an LC retention time [2] of 4.87 min.
`Cc1cnc(=O)[nH]c1N` gave an LC retention time [1] of 1.62 min and an LC retention time [2] of 0.911 min.
For `O=C(O)c1ccc(=O)[nH]c1`, the LC retention time [1] was 0.819 min and the LC retention time [2] was 1.96 min.
`NCCCCC(=O)O` showed an LC retention time [1] of 0.812 min and an LC retention time [2] of 0.909 min.
For `[2H]c1c([2H])c([2H])c(C(=O)NCC(=O)O)c([2H])c1[2H]`, the LC retention time [1] was 2.42 min and the LC retention time [2] was 3.22 min.
Compound `CCN1CCCC1CNC(=O)c1cc(S(N)(=O)=O)ccc1OC` (stereo not given) has an LC retention time [1] of 4.29 min and an LC retention time [2] of 2.24 min.
